This note sets out measurements from patent US9902696B2, “1,4-substituted piperidine derivatives” (Cephalon, Inc., priority 2015, dated 2018).

Data set [1] concerns the target T1, recombinant human baculovirus-expressed GST-tagged FASN (Homo sapiens, UniProt P49327).
T1 construct: GST
The data set can be described thus: FASN enzyme activity assay, fluorescence-based detection of CoA with CPM. In kind it is biochemical. The following applies: 5 nM FASN, 150 μM NADPH, 10 μM acetyl-CoA, 25 μM malonyl-CoA, 90 minutes incubation. In outline: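 CoA product reacted with thiol-reactive CPM (diluted to 50 μM in 70% ethanol), read at 390/530 nm after 30 min. Preceding reaction: 90 min, 5 nM recombinant GST-FASN, 150 μM NADPH, 10 μM acetyl-CoA, 25 μM malonyl-CoA, pH 7.5 HEPES, 0.5% DMSO. IC50s fitted by nonlinear sigmoidal regression.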

Where [2] appears, read: read-out: IC50 data for Additional Compounds of Formulae I-V(a): Activity.

The structures appear in SMILES notation. pIC50: −log10 of the molar value. Like-named read-outs stand apart in the source and are kept apart here.

T1 sequence (P49327 whole entry): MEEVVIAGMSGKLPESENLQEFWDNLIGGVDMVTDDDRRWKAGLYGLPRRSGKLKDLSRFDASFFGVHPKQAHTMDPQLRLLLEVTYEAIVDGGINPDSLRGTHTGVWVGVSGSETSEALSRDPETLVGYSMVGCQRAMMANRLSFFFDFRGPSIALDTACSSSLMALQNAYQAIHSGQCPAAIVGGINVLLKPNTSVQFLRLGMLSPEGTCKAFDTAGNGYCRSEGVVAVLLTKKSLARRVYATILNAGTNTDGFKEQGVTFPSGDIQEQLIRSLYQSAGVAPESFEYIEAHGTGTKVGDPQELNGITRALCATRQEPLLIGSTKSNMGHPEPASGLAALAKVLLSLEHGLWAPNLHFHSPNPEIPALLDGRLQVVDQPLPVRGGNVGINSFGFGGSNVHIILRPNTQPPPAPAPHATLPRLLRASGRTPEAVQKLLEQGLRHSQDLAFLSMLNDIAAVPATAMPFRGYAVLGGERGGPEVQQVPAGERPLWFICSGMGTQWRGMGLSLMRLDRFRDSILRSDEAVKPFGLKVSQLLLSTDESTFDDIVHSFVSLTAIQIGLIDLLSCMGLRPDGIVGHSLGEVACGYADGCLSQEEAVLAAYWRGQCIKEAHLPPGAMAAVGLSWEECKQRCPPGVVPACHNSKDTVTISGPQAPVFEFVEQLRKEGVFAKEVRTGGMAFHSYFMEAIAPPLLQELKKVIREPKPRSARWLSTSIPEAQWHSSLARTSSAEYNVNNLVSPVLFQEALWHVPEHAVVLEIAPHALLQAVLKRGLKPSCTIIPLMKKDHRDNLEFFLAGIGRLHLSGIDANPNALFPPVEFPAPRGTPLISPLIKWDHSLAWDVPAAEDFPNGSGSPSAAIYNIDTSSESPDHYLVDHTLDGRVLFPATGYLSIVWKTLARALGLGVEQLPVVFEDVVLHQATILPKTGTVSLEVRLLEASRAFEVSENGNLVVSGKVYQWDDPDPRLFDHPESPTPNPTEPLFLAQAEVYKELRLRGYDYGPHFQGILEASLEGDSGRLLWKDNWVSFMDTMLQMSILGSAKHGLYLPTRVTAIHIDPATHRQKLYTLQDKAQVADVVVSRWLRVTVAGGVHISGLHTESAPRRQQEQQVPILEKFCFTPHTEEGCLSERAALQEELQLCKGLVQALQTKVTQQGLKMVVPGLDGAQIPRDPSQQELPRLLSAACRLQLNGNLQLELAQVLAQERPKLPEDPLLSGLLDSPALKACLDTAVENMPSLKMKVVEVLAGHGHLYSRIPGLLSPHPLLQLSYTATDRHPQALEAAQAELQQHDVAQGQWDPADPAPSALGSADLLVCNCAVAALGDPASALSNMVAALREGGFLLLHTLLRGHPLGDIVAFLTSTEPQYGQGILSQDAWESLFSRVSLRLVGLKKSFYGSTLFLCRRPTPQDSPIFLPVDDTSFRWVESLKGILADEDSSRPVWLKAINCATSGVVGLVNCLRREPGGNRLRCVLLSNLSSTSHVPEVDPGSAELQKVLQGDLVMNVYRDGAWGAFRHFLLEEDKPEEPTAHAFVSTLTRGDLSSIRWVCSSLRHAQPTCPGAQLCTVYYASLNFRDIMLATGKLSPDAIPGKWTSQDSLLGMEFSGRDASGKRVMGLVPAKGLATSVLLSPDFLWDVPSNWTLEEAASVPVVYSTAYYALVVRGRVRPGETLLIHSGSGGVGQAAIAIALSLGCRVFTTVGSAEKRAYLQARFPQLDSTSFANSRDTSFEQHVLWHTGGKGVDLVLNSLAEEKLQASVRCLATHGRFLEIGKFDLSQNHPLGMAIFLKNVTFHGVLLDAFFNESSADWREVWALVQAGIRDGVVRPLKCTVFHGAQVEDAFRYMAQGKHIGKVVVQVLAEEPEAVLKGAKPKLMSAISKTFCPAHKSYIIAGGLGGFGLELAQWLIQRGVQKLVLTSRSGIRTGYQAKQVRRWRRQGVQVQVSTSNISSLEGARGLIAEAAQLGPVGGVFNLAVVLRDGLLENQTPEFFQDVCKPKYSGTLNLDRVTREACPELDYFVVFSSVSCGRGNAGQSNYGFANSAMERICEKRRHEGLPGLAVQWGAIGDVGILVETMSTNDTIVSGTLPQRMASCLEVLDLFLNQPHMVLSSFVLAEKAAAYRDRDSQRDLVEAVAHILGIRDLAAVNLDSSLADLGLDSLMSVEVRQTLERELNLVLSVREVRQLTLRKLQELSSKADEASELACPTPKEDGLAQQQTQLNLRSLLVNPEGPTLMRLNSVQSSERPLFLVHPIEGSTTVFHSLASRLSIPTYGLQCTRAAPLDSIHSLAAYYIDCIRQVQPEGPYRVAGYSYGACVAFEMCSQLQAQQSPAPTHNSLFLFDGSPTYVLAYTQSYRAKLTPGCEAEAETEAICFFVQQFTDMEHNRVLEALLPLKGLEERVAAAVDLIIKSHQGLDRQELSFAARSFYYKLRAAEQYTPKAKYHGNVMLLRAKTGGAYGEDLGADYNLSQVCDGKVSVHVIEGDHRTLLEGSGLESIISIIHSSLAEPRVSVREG

`CC(C)CC(=O)N1CC(Oc2ccc(-c3cnc4ccccc4c3)cc2)C1` [Example 341, 3-Methyl-1-(3-(4-(quinolin-3-yl)phenoxy)azetidin-1-yl)butan-1-one] gave a melting point of 201 °C. Further, in data set [1] (read-out: IC50 data for Compounds of Formulae I-V/V(a): Activity), the pIC50 was 5.00 to 6.00.

Take `CCCCNC(=O)N1CCC(Oc2ccc(-c3ccc4nccn4c3Cl)cc2)CC1` [Example 563, N-Butyl-4-[4-(5-chloroimidazo[1,2-a]pyridin-6-yl)phenoxy]piperidine-1-carboxamide]: the melting point lay in the range of 171 to 177 °C. For the same compound, the pIC50 in data set [1] (setting [2]) is 7.00 to 9.00.

In turn, `CCNC(=O)N1CCC(Oc2ccc(-c3ccc4nccn4c3Cl)cc2)CC1` [Example 564, 4-[4-(5-Chloroimidazo[1,2-a]pyridin-6-yl)phenoxy]-N-ethyl-piperidine-1-carboxamide] had a melting point of 189 to 193 °C. In data set [1] (setting [2]), the pIC50 is 5.00 to 6.00.

`CC(C)CNC(=O)N1CCC(Oc2ccc(-c3ccc4nccn4c3Cl)cc2)CC1` [Example 565, 4-[4-(5-Chloroimidazo[1,2-a]pyridin-6-yl)phenoxy]-N-isobutyl-piperidine-1-carboxamide] showed a melting point of 201 °C. Further, the pIC50 in data set [1] (setting [2]) is 6.00 to 7.00.

On to `CCCNC(=O)N1CCC(Oc2ccc(-c3ccc4nccn4c3Cl)cc2)CC1` [Example 566, 4-[4-(5-Chloroimidazo[1,2-a]pyridin-6-yl)phenoxy]-N-propyl-piperidine-1-carboxamide], for which the melting point was 184 °C. Besides, the pIC50 in data set [1] (setting [2]) was 7.00 to 9.00.

The compound `COCCNC(=O)N1CCC(Oc2ccc(-c3ccc4nccn4c3Cl)cc2)CC1` [Example 567, 4-[4-(5-Chloroimidazo[1,2-a]pyridin-6-yl)phenoxy]-N-(2-methoxyethyl)-piperidine-1-carboxamide] had a melting point of 135 to 138 °C. In addition, the pIC50 in data set [1] (setting [2]) is 6.00 to 7.00.

With `O=C(NCC1CC1)N1CCC(Oc2ccc(-c3ccc4nccn4c3Cl)cc2)CC1` [Example 568, 4-[4-(5-Chloroimidazo[1,2-a]pyridin-6-yl)phenoxy]-N-(cyclopropylmethyl)-piperidine-1-carboxamide], the melting point is 183 to 185 °C. In data set [1] (setting [2]), the pIC50 is 5.00 to 6.00.

For the compound `CC(C)ONC(=O)N1CCC(Oc2ccc(-c3ccc4nccn4c3Cl)cc2)CC1` [Example 569, 4-[4-(5-Chloroimidazo[1,2-a]pyridin-6-yl)phenoxy]-N-isopropoxy-piperidine-1-carboxamide], the melting point stood at 175 °C. In data set [1] (setting [2]), the pIC50 is 6.00 to 7.00.

Take `CC(C)NC(=O)N1CCC(Oc2ccc(-c3ccc4nccn4c3Cl)cc2)CC1` [Example 570, 4-[4-(5-Chloroimidazo[1,2-a]pyridin-6-yl)phenoxy]-N-isopropyl-piperidine-1-carboxamide]: the melting point stood at 220 °C. In addition, in data set [1] (setting [2]), the pIC50 is 7.00 to 9.00.

In turn, `CC(C)CONC(=O)N1CCC(Oc2ccc(-c3ccc4nccn4c3Cl)cc2)CC1` [Example 571, 4-[4-(5-Chloroimidazo[1,2-a]pyridin-6-yl)phenoxy]-N-isobutoxy-piperidine-1-carboxamide] gave a melting point of 157 °C. For the same compound, the pIC50 in data set [1] (setting [2]) is 5.00 to 6.00.

Turning to `CC(C)CCNC(=O)N1CCC(Oc2ccc(-c3ccc4nccn4c3Cl)cc2)CC1` [Example 572, 4-[4-(5-Chloroimidazo[1,2-a]pyridin-6-yl)phenoxy]-N-isopentyl-piperidine-1-carboxamide], the melting point came to 185 °C. Also, the pIC50 in data set [1] (setting [2]) was 5.00 to 6.00.

Regarding `CCCONC(=O)N1CCC(Oc2ccc(-c3ccc4cccnc4c3C)cc2)CC1` [Example 574, 4-[4-(8-Methyl-7-quinolyl)phenoxy]-N-propoxy-piperidine-1-carboxamide], the melting point was determined as 75 °C. Further, the pIC50 in data set [1] (setting [2]) is 7.00 to 9.00.

In turn, `O=C(NO)N1CCC(Oc2ccc(-c3ccc4nccn4c3Cl)cc2)CC1` [Example 575, 4-[4-(5-Chloroimidazo[1,2-a]pyridin-6-yl)phenoxy]piperidine-1-carbohydroxamic acid] came in with a melting point of 232 °C. In addition, the pIC50 in data set [1] (setting [2]) is 7.00 to 9.00.

In turn, `NC(=O)N1CCC(Oc2ccc(-c3ccc4nccn4c3Cl)cc2)CC1` [Example 577, 4-[4-(5-Chloroimidazo[1,2-a]pyridin-6-yl)phenoxy]piperidine-1-carboxamide] returned a melting point of 204 °C. Further, the pIC50 in data set [1] (setting [2]) is 6.00 to 7.00.

For `CCNC(=O)N1CCC(Oc2ccc(-c3ccc4c(C)nccc4c3)cc2)CC1` [Example 578, N-Ethyl-4-[4-(1-methyl-6-isoquinolyl)phenoxy]piperidine-1-carboxamide], the melting point came out at 211 °C. In data set [1] (setting [2]), the pIC50 was 5.00 to 6.00.

Regarding `CCCNC(=O)N1CCC(Oc2ccc(-c3ccc4c(C)nccc4c3)cc2)CC1` [Example 579, 4-[4-(1-Methyl-6-isoquinolyl)phenoxy]-N-propyl-piperidine-1-carboxamide], the melting point stood at 181 °C. In addition, the pIC50 in data set [1] (setting [2]) was 6.00 to 7.00.

`Cc1nccc2cc(-c3ccc(OC4CCN(C(=O)NCC(C)C)CC4)cc3)ccc12` [Example 580, N-Isobutyl-4-[4-(1-methyl-6-isoquinolyl)phenoxy]piperidine-1-carboxamide] registered a melting point of 157 °C. Moreover, the pIC50 in data set [1] (setting [2]) was 7.00 to 9.00.

As to `Cc1nccc2cc(-c3ccc(OC4CCN(C(N)=O)CC4)cc3)ccc12` [Example 581, 4-[4-(1-Methyl-6-isoquinolyl)phenoxy]piperidine-1-carboxamide], the melting point came out at 232 °C. In data set [1] (setting [2]), the pIC50 was 7.00 to 9.00.

`Cc1nccc2cc(-c3ccc(OC4CCN(C(=O)NCC5CC5)CC4)cc3)ccc12` [Example 582, N-(Cyclopropylmethyl)-4-[4-(1-methyl-6-isoquinolyl)phenoxy]piperidine-1-carboxamide] returned a melting point of 188 °C. For the same compound, the pIC50 in data set [1] (setting [2]) was 5.00 to 6.00.

`Cc1nccc2cc(-c3ccc(OC4CCN(C(=O)NOC(C)C)CC4)cc3)ccc12` [Example 583, N-Isopropoxy-4-[4-(1-methyl-6-isoquinolyl)phenoxy]piperidine-1-carboxamide] returned a melting point of 189 °C. Further, in data set [1] (setting [2]), the pIC50 was 7.00 to 9.00.

With `CCCONC(=O)N1CCC(Oc2ccc(-c3ccc4c(C)nccc4c3)cc2)CC1` [Example 584, 4-[4-(1-Methyl-6-isoquinolyl)phenoxy]-N-propoxypiperidine-1-carboxamide], the melting point came to 165 °C. Also, in data set [1] (setting [2]), the pIC50 was 7.00 to 9.00.

The compound `Cc1nccc2cc(-c3ccc(OC4CCN(C(=O)NO)CC4)cc3)ccc12` [Example 585, 4-[4-(1-Methyl-6-isoquinolyl)phenoxy]piperidine-1-carbohydroxamic acid] showed a melting point of 185 °C. Moreover, the pIC50 in data set [1] (setting [2]) is 6.00 to 7.00.

On to `CCONC(=O)N1CCC(Oc2ccc(-c3ccc4c(C)nccc4c3)cc2)CC1` [Example 586, N-Ethoxy-4-[4-(1-methyl-6-isoquinolyl)phenoxy]piperidine-1-carboxamide], for which the melting point was 208 °C. Moreover, the pIC50 in data set [1] (setting [2]) is 5.00 to 6.00.

`CCONC(=O)N1CCC(Oc2ccc(-c3cnc4ccccc4c3C)cc2)CC1` [Example 587, N-Ethoxy-4-[4-(4-methyl-3-quinolyl)phenoxy]piperidine-1-carboxamide] showed a melting point of 152 °C. In data set [1] (setting [2]), the pIC50 was 7.00 to 9.00.

Consider `Cc1c(-c2ccc(OC3CCN(C(=O)NOC(C)C)CC3)cc2)cnc2ccccc12` [Example 588, N-Isopropoxy-4-[4-(4-methyl-3-quinolyl)phenoxy]piperidine-1-carboxamide], for which the melting point turned out to be 80 °C. Further, the pIC50 in data set [1] (setting [2]) is 7.00 to 9.00.

Compound `CCCONC(=O)N1CCC(Oc2ccc(-c3cnc4ccccc4c3C)cc2)CC1` [Example 589, 4-[4-(4-Methyl-3-quinolyl)phenoxy]-N-propoxy-piperidine-1-carboxamide] registered a melting point of 75 °C. The pIC50 in data set [1] (setting [2]) was 7.00 to 9.00.

The compound `Cc1c(-c2ccc(OC3CCN(C(=O)NCC(C)C)CC3)cc2)cnc2ccccc12` [Example 590, N-Isobutyl-4-[4-(4-methyl-3-quinolyl)phenoxy]piperidine-1-carboxamide] returned a melting point of 153 °C. Moreover, the pIC50 in data set [1] (setting [2]) is 7.00 to 9.00.

For `CCCNC(=O)N1CCC(Oc2ccc(-c3cnc4ccccc4c3C)cc2)CC1` [Example 591, 4-[4-(4-Methyl-3-quinolyl)phenoxy]-N-propyl-piperidine-1-carboxamide], the melting point is 171 °C. The pIC50 in data set [1] (setting [2]) was 7.00 to 9.00.

The melting point is the temperature, or range, at which the solid turns liquid.
